Source: US8697081B2, “Method of modulating neovascularization” (The Regents of the University of Michigan, priority 2008, dated 2014)

Experiments:
Type in all cases: cell-based
[1] = tested on: Human umbilical vein endothelial cells; assay: Protein synthesis in 3-D-embedded endothelial cells; details: growth factor-stimulated cells
Description: The laminar network of type A and type B lamins directly or indirectly binds chromatin and DNA, as well as a variety of inner nuclear membrane proteins functionally linked to nuclear architecture and mechanical integrity, chromatin organization, gene regulation, and DNA replication (Crisp and Burke, supra; Dechat et al., supra; Starr, supra).

[2] = tested on: Human umbilical vein endothelial cells; assay: Atomic force microscopy micro-indentation of pericellular ECM rigidity; details: VEGF/HGF-stimulated, fibrin gels
Method: Since ECM rigidity regulates cytoskeletal remodeling and force generation, and consequently cell function (Engler et al., 2006. Cell, 126: 677-689; Wozniak and Chen, supra; Zajac and Discher, 2008. Curr. Opin. Cell Biol., 20: 609-615), atomic force microscopy micro-indentation (AFM) was employed to quantify endothelial cell-dependent changes in ECM remodeling. AFM was performed by first washing fibrin gels with phosphate buffered saline (PBS) after removing culture medium. Samples were mechanically characterized using an Asylum MFP-3D atomic force microscope (Asylum Research, Santa Barbara, Calif.). Micro-indentation was performed using a sphere-tipped probe (Novascan, Ames, Iowa) with a sphere diameter of 5 μm and a nominal spring constant of ˜60 pN/nm. The cantilever spring constant was confirmed by thermal fluctuation method (Thundat et al., 1994. Applied Physics Letters, 64: 2894-2896). The AFM system was calibrated by following the manufacturer's recommended procedure before each indentation measurement. AFM micro-indentation was performed in PBS solution at room temperature. Individual force-indentation profile was acquired at an indentation rate of 2 μm/s using deflection trigger mode with a trigger value of 200 nm. […] Shear modulus at each position was calculated from fitting force-indentation data using a Hertz sphere model (Richert et al., 2004, Biomacromolecules, 5: 1908-1916).

[3] = tested on: human endothelial cells; assay: Cell morphology, migration and cell number of endothelial cells in 3-D fibrin gel; details: 2 days, 50 μM blebbistatin
Method: Endothelial cells were isolated from human umbilical cord veins by collagenase digestion and cultured in Medium 199 (Gibco) containing 20% human serum, 50 μg/ml endothelial cell growth supplement (BD Biosciences), 100 U/ml penicillin, and 100 μg/ml streptomycin (Hiraoka et al. 1998. Cell, 95(3): 365-377). […]
The effect of Fn matrix assembly, or lack thereof, on endothelial cell function during neovascularization was assessed. […]
(Chernousov et al. 1991. J. Biol. Chem., 266(17): 10851-10858; Tomasini-Johansson et al. 2001. J. Biol. Chem., 276(26): 23430-23439; Mao and Schwarzbauer. 2005. Matrix Biol., 24(6): 389-399; and Tomasini-Johansson et al. 2006. Matrix Biol., 25(5): 282-293). […] Cell number in 3-D cultures was determined by hemacytometry after dissolving gels with 2 mg/ml bacterial collagenase (Worthington) while the number of patent tubules was determined in randomly selected cross-sections. Fn matrix assembly and cell morphology were monitored by confocal laser microscopy. To examine cell migration, endothelial cells were embedded in a 100 μl fibrin gel for 2 hours, then placed within a 500 μl gel for 8 days in the presence of Del29, FUD, control IgG, or L8, after which migration from the inner gel was assessed. […]

Row | Compound | protein synthesis [1] | 3-D pericellular rigidity (shear modulus by AFM) [2] | cell shape change [3]
1 | CNC(=O)[C@H](Cc1c[nH]c2ccccc12)NC(=O)[C@@H](CC(=O)NO)CC(C)C [GM6001] | no major changes | significantly lower | 
2 | Cc1ccc2c(c1)C(=O)C1(O)CCN(c3ccccc3)C1=N2 (centres unmarked) [blebbistatin] |  |  | failed to undergo
3 | FUD: 49-residue functional upstream domain of Streptococcus pyogenes F1 adhesion protein, SEQ ID NO: 10; fibronectin fibril assembly inhibitor (KDQSPLAGESGETEYITEVYGNQQNPVDIDKKLPNETGFSGNMVETEDT; Streptococcus pyogenes; Functional Upstream Domain (FUD) of F1 adhesion protein) | no major changes | significantly lower | 
